# Test results taken from publication PMC7486443, “Generation of Phenothiazine with Potent Anti-TLK1 Activity for Prostate Cancer Therapy” (iScience, 2020).
# Experiments:
# Assay in all cases: biochemical
# Design in all cases: DiscoverX KINOMEscan scanMAX competition binding panel, single concentration, percent of control; remaining binding: dose or concentration left out as unconfirmed
# Conditions in all cases: KINOMEscan binding, percent of control; read-out: Table S4_SCANMAX REPORT - related to Fig. 1 / Percent Control
# CDK7 = CDK7 (Homo sapiens, UniProt P50613)
# MST3 = target: T1, MST3 (Homo sapiens, UniProt Q9Y6E0)
# T1 construct: gene STK24
# HASPIN = HASPIN (Homo sapiens, UniProt Q8TF76)
# TNIK = TNIK (Homo sapiens, UniProt Q9UKE5)
# [1] = target: T2, RSK1(Kin.Dom.2-C-terminal) (Homo sapiens, UniProt Q15418)
# T2 construct: gene RPS6KA1; Kin.Dom.2-C-terminal
# DRAK1 = target: T3, DRAK1 (Homo sapiens, UniProt Q9UEE5)
# T3 construct: gene STK17A
# ERK3 = target: T4, ERK3 (Homo sapiens, UniProt Q16659)
# T4 construct: gene MAPK6
# CAMK1 = CAMK1 (Homo sapiens, UniProt Q14012)
# [2] = target: T5, RSK3(Kin.Dom.1-N-terminal) (Homo sapiens, UniProt Q15349)
# T5 construct: gene RPS6KA2; Kin.Dom.1-N-terminal
# p38-delta = target: T6, p38-delta (Homo sapiens, UniProt O15264)
# T6 construct: gene MAPK13
# CDK9 = CDK9 (Homo sapiens, UniProt P50750)
# KIT(A829P) = KIT(A829P) (Homo sapiens, UniProt P10721, A829P)
# VRK2 = VRK2 (Homo sapiens, UniProt Q86Y07)
# FGR = FGR (Homo sapiens, UniProt P09769)
# PIK3CA(H1047Y) = PIK3CA(H1047Y) (Homo sapiens, UniProt P42336, H1047Y)
# PAK3 = PAK3 (Homo sapiens, UniProt O75914)
# KIT = KIT (Homo sapiens, UniProt P10721)
# GCN2(Kin.Dom.2,S808G) = target: T7, GCN2(Kin.Dom.2,S808G) (Homo sapiens, UniProt Q9P2K8, S808G)
# T7 construct: gene EIF2AK4; Kin.Dom.2
# FGR, sequence (P09769 whole entry): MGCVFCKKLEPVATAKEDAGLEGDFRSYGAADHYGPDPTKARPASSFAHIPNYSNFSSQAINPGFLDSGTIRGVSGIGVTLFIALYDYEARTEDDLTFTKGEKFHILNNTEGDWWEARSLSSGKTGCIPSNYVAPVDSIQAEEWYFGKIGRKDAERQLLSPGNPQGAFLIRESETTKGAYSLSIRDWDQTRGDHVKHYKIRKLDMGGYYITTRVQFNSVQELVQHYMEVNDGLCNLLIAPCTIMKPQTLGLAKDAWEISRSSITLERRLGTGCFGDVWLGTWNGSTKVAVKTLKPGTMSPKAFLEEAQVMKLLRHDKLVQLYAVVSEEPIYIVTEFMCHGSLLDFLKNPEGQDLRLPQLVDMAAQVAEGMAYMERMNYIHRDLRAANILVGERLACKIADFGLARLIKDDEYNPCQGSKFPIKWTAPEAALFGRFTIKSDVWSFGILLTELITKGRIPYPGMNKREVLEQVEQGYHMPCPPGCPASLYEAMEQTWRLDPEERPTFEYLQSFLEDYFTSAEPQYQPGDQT
# T3 sequence (Q9UEE5 whole entry): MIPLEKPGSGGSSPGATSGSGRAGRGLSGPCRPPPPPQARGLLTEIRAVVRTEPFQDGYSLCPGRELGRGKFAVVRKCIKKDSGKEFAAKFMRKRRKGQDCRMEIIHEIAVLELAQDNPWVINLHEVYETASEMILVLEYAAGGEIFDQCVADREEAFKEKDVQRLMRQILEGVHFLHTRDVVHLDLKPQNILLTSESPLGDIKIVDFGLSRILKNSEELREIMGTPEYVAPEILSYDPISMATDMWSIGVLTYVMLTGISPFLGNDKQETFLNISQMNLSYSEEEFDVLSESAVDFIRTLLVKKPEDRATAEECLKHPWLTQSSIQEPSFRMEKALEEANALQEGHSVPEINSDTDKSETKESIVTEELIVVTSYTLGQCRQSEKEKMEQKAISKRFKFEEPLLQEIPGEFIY
# TNIK, sequence (Q9UKE5 whole entry): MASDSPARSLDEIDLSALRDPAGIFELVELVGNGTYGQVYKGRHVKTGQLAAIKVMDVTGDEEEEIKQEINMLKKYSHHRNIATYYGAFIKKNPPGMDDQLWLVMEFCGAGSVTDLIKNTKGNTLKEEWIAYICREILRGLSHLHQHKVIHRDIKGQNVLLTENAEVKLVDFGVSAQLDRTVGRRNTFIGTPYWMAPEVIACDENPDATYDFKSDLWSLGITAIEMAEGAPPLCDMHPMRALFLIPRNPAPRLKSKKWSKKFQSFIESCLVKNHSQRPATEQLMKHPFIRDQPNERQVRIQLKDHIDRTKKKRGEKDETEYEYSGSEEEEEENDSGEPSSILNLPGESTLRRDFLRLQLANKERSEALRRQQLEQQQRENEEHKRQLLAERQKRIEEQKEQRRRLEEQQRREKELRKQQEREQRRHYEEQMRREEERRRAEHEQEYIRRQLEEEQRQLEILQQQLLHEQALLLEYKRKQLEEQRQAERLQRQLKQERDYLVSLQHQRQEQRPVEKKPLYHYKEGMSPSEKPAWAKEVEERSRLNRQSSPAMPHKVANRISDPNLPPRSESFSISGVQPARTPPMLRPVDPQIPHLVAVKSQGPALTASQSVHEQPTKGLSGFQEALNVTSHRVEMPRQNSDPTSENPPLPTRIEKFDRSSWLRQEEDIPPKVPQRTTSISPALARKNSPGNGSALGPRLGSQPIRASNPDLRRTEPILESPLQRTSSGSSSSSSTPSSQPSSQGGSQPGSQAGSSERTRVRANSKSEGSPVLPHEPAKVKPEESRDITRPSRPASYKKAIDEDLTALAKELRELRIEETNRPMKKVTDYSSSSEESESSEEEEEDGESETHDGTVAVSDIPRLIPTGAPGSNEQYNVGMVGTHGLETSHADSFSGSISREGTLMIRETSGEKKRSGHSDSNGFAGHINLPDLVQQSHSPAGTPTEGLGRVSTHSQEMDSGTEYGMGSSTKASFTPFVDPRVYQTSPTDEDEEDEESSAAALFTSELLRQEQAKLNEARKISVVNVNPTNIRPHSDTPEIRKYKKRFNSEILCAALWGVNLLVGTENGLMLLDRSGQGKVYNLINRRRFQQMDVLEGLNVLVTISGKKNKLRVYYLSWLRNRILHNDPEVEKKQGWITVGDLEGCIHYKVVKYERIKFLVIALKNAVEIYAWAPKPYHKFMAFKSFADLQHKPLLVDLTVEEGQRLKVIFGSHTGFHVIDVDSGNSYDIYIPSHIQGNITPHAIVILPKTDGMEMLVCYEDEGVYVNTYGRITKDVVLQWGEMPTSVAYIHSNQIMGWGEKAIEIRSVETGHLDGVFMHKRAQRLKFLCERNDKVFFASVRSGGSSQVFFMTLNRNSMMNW
# KIT, sequence (P10721 whole entry): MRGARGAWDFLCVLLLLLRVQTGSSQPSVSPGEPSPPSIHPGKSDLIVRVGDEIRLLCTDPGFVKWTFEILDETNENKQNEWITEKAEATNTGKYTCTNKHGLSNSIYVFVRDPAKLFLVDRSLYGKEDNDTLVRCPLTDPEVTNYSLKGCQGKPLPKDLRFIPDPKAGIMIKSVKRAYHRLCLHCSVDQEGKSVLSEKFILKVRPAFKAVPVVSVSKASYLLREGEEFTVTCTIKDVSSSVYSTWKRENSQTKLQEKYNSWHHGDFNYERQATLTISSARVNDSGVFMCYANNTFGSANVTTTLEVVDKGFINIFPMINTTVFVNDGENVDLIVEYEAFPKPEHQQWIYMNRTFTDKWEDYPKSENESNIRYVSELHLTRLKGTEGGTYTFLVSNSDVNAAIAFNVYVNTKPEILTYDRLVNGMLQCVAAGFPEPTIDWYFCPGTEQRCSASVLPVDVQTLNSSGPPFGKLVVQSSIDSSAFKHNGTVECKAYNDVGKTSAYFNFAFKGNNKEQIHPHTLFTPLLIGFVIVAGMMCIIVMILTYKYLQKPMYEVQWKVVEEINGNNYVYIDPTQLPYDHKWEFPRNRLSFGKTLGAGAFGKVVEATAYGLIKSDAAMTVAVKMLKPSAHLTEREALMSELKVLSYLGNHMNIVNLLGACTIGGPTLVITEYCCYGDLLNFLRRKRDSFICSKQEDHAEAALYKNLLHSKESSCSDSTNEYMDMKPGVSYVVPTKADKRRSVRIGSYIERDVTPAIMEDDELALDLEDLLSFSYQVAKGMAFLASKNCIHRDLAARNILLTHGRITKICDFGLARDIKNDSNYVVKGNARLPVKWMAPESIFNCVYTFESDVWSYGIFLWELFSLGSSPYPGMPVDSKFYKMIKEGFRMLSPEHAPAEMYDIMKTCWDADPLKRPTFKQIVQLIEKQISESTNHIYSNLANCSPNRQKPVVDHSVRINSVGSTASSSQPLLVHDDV
# CDK7, sequence (P50613 whole entry): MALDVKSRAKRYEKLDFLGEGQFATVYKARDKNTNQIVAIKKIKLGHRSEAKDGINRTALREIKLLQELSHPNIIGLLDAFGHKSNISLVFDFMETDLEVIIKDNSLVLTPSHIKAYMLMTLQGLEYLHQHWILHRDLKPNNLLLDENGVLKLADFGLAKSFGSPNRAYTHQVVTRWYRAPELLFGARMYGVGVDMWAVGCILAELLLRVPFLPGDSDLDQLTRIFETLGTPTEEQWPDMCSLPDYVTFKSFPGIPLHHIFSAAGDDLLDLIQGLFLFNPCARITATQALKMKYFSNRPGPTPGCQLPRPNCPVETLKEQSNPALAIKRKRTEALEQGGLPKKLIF
# VRK2, sequence (Q86Y07 whole entry): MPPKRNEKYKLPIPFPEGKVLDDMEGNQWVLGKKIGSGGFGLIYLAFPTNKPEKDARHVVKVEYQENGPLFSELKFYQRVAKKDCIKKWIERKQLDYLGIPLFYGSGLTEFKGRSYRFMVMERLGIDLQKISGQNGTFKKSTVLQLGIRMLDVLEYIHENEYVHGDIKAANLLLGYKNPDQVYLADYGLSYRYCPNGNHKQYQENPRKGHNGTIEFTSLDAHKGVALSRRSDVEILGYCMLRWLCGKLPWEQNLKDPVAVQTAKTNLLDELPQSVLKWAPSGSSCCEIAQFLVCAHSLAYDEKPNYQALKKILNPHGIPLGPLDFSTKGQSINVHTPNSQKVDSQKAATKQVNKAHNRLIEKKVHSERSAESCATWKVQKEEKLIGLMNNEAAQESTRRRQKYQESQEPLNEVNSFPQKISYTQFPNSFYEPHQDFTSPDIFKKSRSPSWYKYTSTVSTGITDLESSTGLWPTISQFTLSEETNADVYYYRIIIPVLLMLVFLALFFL
# PAK3, sequence (O75914 whole entry): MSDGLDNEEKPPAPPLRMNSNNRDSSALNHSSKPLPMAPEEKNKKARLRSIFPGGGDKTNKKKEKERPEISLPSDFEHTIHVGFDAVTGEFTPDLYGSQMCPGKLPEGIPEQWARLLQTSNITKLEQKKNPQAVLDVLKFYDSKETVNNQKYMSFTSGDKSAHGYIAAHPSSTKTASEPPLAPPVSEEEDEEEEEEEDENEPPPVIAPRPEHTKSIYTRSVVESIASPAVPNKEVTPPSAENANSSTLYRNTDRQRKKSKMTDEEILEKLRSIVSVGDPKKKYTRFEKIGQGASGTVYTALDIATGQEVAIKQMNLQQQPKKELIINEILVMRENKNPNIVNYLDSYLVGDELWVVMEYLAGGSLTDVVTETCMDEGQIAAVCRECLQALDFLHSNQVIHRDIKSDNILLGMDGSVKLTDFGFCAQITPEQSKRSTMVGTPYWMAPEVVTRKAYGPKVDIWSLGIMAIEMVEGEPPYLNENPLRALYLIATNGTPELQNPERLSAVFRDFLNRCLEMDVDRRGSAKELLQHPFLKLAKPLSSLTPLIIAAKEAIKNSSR
# KIT(A829P), sequence (P10721 whole entry A829P): as the sequence (P10721 whole entry) above, with A829P counted along it
compound,measurement,setting,value
c1ccc2c(c1)Sc1ccccc1N2CCN1CCOCC1 [J54],remaining binding,CDK7,74%
same,remaining binding,MST3,100%
same,remaining binding,HASPIN,94%
same,remaining binding,TNIK,98%
same,remaining binding,[1],100%
same,remaining binding,DRAK1,89%
same,remaining binding,ERK3,73%
same,remaining binding,CAMK1,97%
same,remaining binding,[2],100%
same,remaining binding,p38-delta,100%
same,remaining binding,CDK9,100%
same,remaining binding,KIT(A829P),94%
same,remaining binding,VRK2,70%
same,remaining binding,FGR,100%
same,remaining binding,PIK3CA(H1047Y),86%
same,remaining binding,PAK3,100%
same,remaining binding,KIT,100%
same,remaining binding,"GCN2(Kin.Dom.2,S808G)",100%
